The values below come from patent US7897779B2, “Ionic UV-A sunscreens and compositions containing them” (DSM IP Assets B.V., priority 2004, dated 2011).

Where only a bound is given, the exact number is not on record here.

Series [1] in a line: UV absorption spectrum (absorption maximum and extinction E). The note with it: for extinction E: at absorption maximum. The class given is physicochemical. The arrangement: extinction E: unit not given beside the values. The source says:
This salt was recrystallized from DMF.
The reaction mixture was concentrated at the rotavap, followed by HV drying. The residue is washed with cyclohexane and then with ethylacetate followed by recrystallization from ethanol.

A short description of series [2]: Photostability according to Berset et al., Internat. J. Cosmetic Science 18: 167-177 (1996). The class given is physicochemical. The note with it: solution in water/glycerol=7:3 as liquid phase. As for the experimental part:
209-210° C. […] One equivalent of aq. […] M.p. […] .

The nature of the next series: physchem. To be noted: water.
For series [3] the following is noted: prior-art water-soluble UV-A sunscreen (EP-A 669 323, DE 33 24 735); cited from earlier work.

Take `CC1=CC(=C(C#N)C#N)C=C(C)N1CCOCCOP(=O)([O-])O.[Na+]` [Example 1, 4-dicyanomethylene-2,6-dimethyl-1,4-dihydropyridine-N-(ethyloxy-ethyloxyphosphate estermonosodium salt)]: in series [1] (UV (water)), the UV absorption maximum was found to be 350 nm and the “extinction E” value is reported as 979. Moreover, in series [2], the photostability result was “photostable”. In “physchem”, this molecule came in with a solubility of 168 mg/mL.

Regarding `CC1=CC(=C(C#N)C#N)C=C(C)N1CCOS(=O)(=O)[O-].[Na+]` [Example 2, 4-dicyanomethylene-2,6-dimethyl-1,4-dihydropyridine-N-(ethyloxysulfate estermonosodium salt)], in series [1] (UV (water)), the UV absorption maximum stood at 352 nm and the “extinction E” value stood at 1261. The photostability result in series [2] is recorded as “photostable”.

In turn, `CC1=CC(=C(C#N)C#N)C=C(C)N1CCC[N+](C)(C)CCOCCOCCO.[I-]` [Example 3] returned a UV absorption maximum in series [1] (UV (ethanol)) of 362 nm.

For `CC1=CC(=C(C#N)C#N)C=C(C)N1CCOCC[n+]1ccccc1` [Example 4, 1-{2-[2-(4-dicyanomethylene-2,6-dimethyl-4H-pyridin-1-yl)-ethoxy]-ethyl}-pyridinium chloride], in series [1] (UV (water)), the UV absorption maximum was 352 nm and the “extinction E” value came to 1149. In “physchem”, the solubility is more than 200 mg/mL.

On to `CC1=CC(=C(C#N)C#N)C=C(C)N1c1cccc(OCCCS(=O)(=O)[O-])c1.[Na+]` [Example 5, 3-[3-(4-dicyanomethylene-2,6-dimethyl-4H-pyridin-1-yl)-phenoxy]propane-1-sulfonic acid], for which, in series [1] (UV (water)), the UV absorption maximum was determined as 352 nm and the “extinction E” value is recorded as 1150.

Regarding `O=S(=O)([O-])c1cc(S(=O)(=O)O)cc2[nH]c(-c3ccc(-c4nc5c(S(=O)(=O)[O-])cc(S(=O)(=O)O)cc5[nH]4)cc3)nc12.[Na+].[Na+]` [disodium phenyldibenzimidazole tetrasulfonate], in series [3], the absorption maximum is recorded as 335 nm and the “extinction value E” value is listed as 745.

Turning to `CC1(C)C2CCC1(CS(=O)(=O)O)C(=O)C2=Cc1ccc(C=C2C(=O)C3(CS(=O)(=O)O)CCC2C3(C)C)cc1` [terephthalylidene dicamphorsulfonic acid], in series [3], the absorption maximum is 345 nm and the “extinction value E” value is 866.

One may read the solubility as how much of the substance goes into solution per volume.
